# Like-named read-outs stand apart in the source and are kept apart here.
# What was measured:
# [1] = system: E. coli; format: cell-based, Escherichia coli
# Procedure: (§1) The optical density of the cell cultured was monitored at 600 nm (OD600 nm). The cells were cultured on 0.8 g/100 ml nutrient agar plate at pH 7.0 and 37° C. […] An overnight culture of the bacterial strain was sub-cultured to 0.06 OD600 nm into the NB medium and was then seeded at max 200 μl into the wells of a 96 well microtiter plate. Samples were then incubated at 37° C. and shaken at 200 rpm for 18 h. The absorbance was measured on an ELIZA plate reader and analyzed with the Gen5™ software suite (version 1.08).
# (§2) • The data are reported as relative percentage growth compared to untreated cells.
# [2] = system: VIM-2 expressing E. coli; format: cell-based, Escherichia coli; conditions: for VIM-2 expressing E. coli Amox (+) relative percentage growth compared to untreated cells: with 50 μM amoxicillin
# Procedure: as §1, §2
# [3] = target: T1, VIM-2 (Pseudomonas aeruginosa, UniProt Q5U7L7); conditions: after incubation with inhibitor and dialysis
# Procedure: VIM-2 was diluted to 6 μM with 50 mM HEPES, pH 7.5, containing 150 mM NaCl. The diluted protein solution was used to make several 5 mL aliquots. […] One aliquot contained one molar equivalent of inhibitor (6 μM), with respect to enzyme concentration, and the second aliquot contained two molar equivalents (12 μM). One aliquot contained no inhibitor. Each aliquot was then incubated for 4 h at 4° C. Following incubation, each aliquot was dialyzed versus 500 mL of 50 mM HEPES, pH 7.5, for 4 h at 4° C. The aliquots were analyzed using ICP-AES, as previously described REF. The emission wavelengths used were 213.856, 238.892, 259.940, 231.604, and 324.754 nm for Zn, Co, Fe, Ni, and Cu, respectively.
# To further address the mode of action of 8-hydroxyquinolines, equilibrium dialysis experiments were conducted. […] EDTA, a well-known metal scavenger, inhibits all MBLs through a chelation mechanism (Bush, K.; Jacoby, G. A. Updated Functional Classification of beta-Lactamases. Antimicrobial Agents and Chemotherapy 2010, 54, 969-976).
# [4] = target: T2, NDM-1 (Klebsiella pneumoniae, UniProt C7C422); experiment: biochemical; conditions: read-out: NDM-1 percentage inhibition, 50 μM compound, 5 nM MBL, 10 μM nitrocefin, 30 mins
# Procedure: BL21 (DE3) E. coli cells containing the pET26b-ndm-1 plasmid were used to inoculate a 50 mL LB starter culture containing kanamycin (25 μg/mL). The culture was grown overnight at 37° C. The starter culture was then used to inoculate 4×1 L LB containing kanamycin (25 μg/mL). These flasks were incubated at 37° C. until culture reached an optical density of (OD600) of 0.6 to 0.8. The incubator was then set to 22° C. and the cultures were shaken for 30 min to allow them to cool. ZnCl2 ([…]) and IPTG (0.5 mM) were then added to the cultures and they were grown for 18 h at 22° C. The cells were then harvested using centrifugation (8000×g) for 10 min. The pellet was resuspended with 25 mL 50 mM HEPES, pH 7.5 containing 500 mM NaCl (Buffer B). Lysis was performed with three passes through a French Press. The lysate was centrifuged for 30 min (15,000×g) at 4° C. The supernatant was then dialyzed versus 2 L 50 mM HEPES, pH 7.5 (Buffer C) for 4 h. An FPLC was used to equilibrate a Q-Sepharose column using buffer C using a flowrate of 2.0 mL/min for 1.5 h. The lysate was then loaded onto the column and eluted with a linear NaCl gradient from 0-500 mM. Fractions containing NDM-1 were identified with SDS-PAGE. These fractions were pooled and concentrated to 2-3 mL in an Amicon ultracentrifugation concentrating unit with a YM-10 membrane. The resulting protein mixture was then loaded onto a Sephacryl S-200 gel filtration column run with 50 mM HEPES, pH 7.5 containing 150 mM NaCl (Buffer A). SDS-PAGE was used to identify fractions containing pure protein.
# (§3) To identify potential MBL inhibitors, the relative change in the formation of hydrolyzed nitrocefin between treated and untreated MBL was determined as percentage inhibition. 5 nM of each BML was pre-incubated for 10 mins with 50 μM of each compound, followed by the addition of 10 μM nitrocefin.
# (§4) Each MBL was incubated with 50 μM of each compound, followed by the addition of nitrocefin. The relative change in absorbance is reported as percentage inhibition.
# [5] = target: T1, VIM-2; experiment: biochemical; conditions: for VIM-2 percentage inhibition: 50 μM compound, 5 nM MBL, 10 μM nitrocefin, 30 mins
# Procedure: (§5) The pET24a-VIM-2 plasmid was transformed into competent BL21 (DE3) E. coli cells. The cells were plated onto an LB-agar plate with kanamycin (25 μg/mL) and incubated overnight at 37° C. A single colony was used to inoculate 50 mL of LB, containing 25 μg/mL kanamycin, and the culture was shaken overnight at 37° C. From the overnight culture, 10 mL were transferred to 4×IL LB medium containing 25 μg/mL kanamycin. The cultures were grown at 37° C. until an optical density (OD600 nm) of 0.6-0.8 was reached, at which point protein production was induced with IPTG (0.5 mM) and ZnCl2 (100 μM). The temperature was reduced to 20° C., and the cells were shaken for an additional 18 h. The cultures were harvested by centrifugation (8 Kxg) for 10 min at 4° C. The resulting pellets were re-suspended in 25 mL of 50 mM HEPES, pH 7.5, containing 500 mM NaCl (buffer B). The cells were lysed with three passes through a French Press. The lysate was centrifuged (15 Kxg) for 30 min at 4° C. The supernatant was dialyzed against 2 L of 50 mM HEPES, pH 7.5 (buffer A), for 4 h. Buffer A was used to equilibrate a 25 mL Q-Sepharose column using an FPLC. The sample was loaded onto the column, and proteins were eluted with a linear gradient 0-500 mM NaCl with buffer B. Fractions containing VIM-2, determined by SDS-PAGE, were pooled and concentrated to 2-3 mL in an Amicon ultraconcentrator equipped YM-10 membrane. Further purification was conducted with a Sephacryl S-200 gel filtration column using 50 mM HEPES, pH 7.5, containing 150 mM NaCl. Fractions containing pure VIM-2 were pooled, and metal analysis was performed.
# as §3, §4
# [6] = target: T1, VIM-2; experiment: biochemical
# Procedure: as §5, with “Further purification was conducted with a Sephacryl S-200 gel filtration column using 50 mM HEPES, pH 7.5, containing 150 mM NaCl.” left out
# The enzyme inhibition constant (Ki) was derived from initial-velocity measurements by nonlinear regression using competitive-inhibition enzyme kinetics using Graphpad Prism 6.
# [7] = cited from earlier work
# [8] = system: HEK293 cells; experiment: Human cell cytotoxicity assay (MTT); conditions: 72 h
# Procedure: (§6) Human embryonic kidney cell line (HEK293) were grown in 100 mm cell culture petri dishes at 37° C. with 5% CO2 in Dulbecco's Modified Eagle's Medium high glucose medium containing 1% penicillin/streptomycin (Sigma-Aldrich, St. Louis, MO) and supplemented with 5% of fetal bovine serum (Thermo Fisher Scientific Gibco®). Cells under 10 passages and the 80% of monitored cell petri dish were used for experiment.
# (§7) Cytotoxicity of tested compounds were estimated using the MTT method. Cell viability were measured by counting viable cells by using the 3 (4,5dimethylthiazol-2-yl)-2,5-diphenyltetrazolium bromide (MTT) (Sigma-Aldrich, St. Louis, MO) colorimetric dye-reduction assay. […] Following 24 h incubation and attachment, the cells were incubated for 72 h with different concentrations of inhibitors (0.01˜100 μM) in culture media without FBS. The Control cells were supplemented only with a medium without containing FBS. All samples in 96 well plate were incubated at 37° C. at an atmosphere of 5% CO2. […] The absorbance was measured using a micro-plate reader at wavelength 590 nm. The CC50 were obtained based on a comparison with untreated cells by fitting the data to a sigmoidal dose-response equation using Graphpad Prism 6.
# [9] = system: VIM-2 expressing E. coli; format: cell-based, Escherichia coli
# Procedure: as §1
# The bacterial culture was prepared as described above. The diluted subculture bacteria in NB medium were set up to a final volume of 200 μl in clear flat-bottom 96-well plates containing ten different concentrations of each tested compound ranging from 0.001 μM to 50 μM. The mixing of the bacterial culture plate were then incubated in a 37° C. […] shaken incubator at 200 rpm for 18 h before measuring their optical density at 600 nm.
# [10] = in vitro; conditions: human
# Procedure: as §6, §7
# [11] = target: T2, NDM-1
# Procedure: Nitrocefin (Cayman, CAS 41906-86-9) was used as the chromogenic substrate for all biochemical assays. […] The rate of product formation was monitored based on the λmax=486 nm absorbance taken at 10 s intervals for 30 mins. […] Velocity versus substrate concentration curves were fitted by nonlinear regression using Michaelis-Menten Enzyme kinetics with Graphpad Prism 6.
# [12] = system: VIM-2; conditions: reported previously, cited from earlier work
# [13] = 5 nM MBL, 10 μM nitrocefin, read-out: VIM-2 IC50
# [14] = nitrocefin substrate, competitive-inhibition fit, read-out: VIM-2 Ki
# [15] = in the presence of 50 μM amoxicillin
# T2 sequence (C7C422 whole entry, looked up, species assumed): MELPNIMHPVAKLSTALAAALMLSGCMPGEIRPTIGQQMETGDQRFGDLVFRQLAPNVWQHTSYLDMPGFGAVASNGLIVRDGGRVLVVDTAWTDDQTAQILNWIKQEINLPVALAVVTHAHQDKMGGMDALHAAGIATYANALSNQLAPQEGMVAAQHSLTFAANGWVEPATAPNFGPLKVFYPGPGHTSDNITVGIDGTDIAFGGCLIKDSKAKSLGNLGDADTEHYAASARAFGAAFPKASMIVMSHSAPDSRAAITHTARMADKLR
structure (smiles),measurement,setting,value
"CC1(C)S[C@@H]2[C@H](NC(=O)[C@H](N)c3ccc(O)cc3)C(=O)N2[C@H]1C(=O)O [Amox, amoxicillin]",E. coli Amox (+) relative percentage growth compared to untreated cells,[1],3.6%
same,growth inhibition of wild type E. coli,[1],over 96%
same,VIM-2 expressing E. coli Amox (+) relative percentage growth compared to untreated cells,[2]; single dose,77%
"O=C(O)[C@H]1/C(=C/CO)O[C@@H]2CC(=O)N21 [Clav, Clavulanate]",E. coli Amox (+) relative percentage growth compared to untreated cells,"[1]; wild type E. coli, single dose, with 50 μM amoxicillin",2.9%
same,E. coli Amox (−) relative percentage growth compared to untreated cells,"[1]; wild type E. coli, single dose, without amoxicillin",86%
same,VIM-2 expressing E. coli Amox (+) relative percentage growth compared to untreated cells,[2]; single dose,57%
same,VIM-2 expressing E. coli Amox (−) relative percentage growth compared to untreated cells,"[2]; single dose, without amoxicillin",93%
"C[C@H](CS)C(=O)N1CCC[C@H]1C(=O)O [Compound 1, L-captopril, reference compound]",metal content of VIM-2 / removal of Zn(II) from the active site,[3],relatively unaffected
same,inhibition at 50 µM,[4],93%
"Oc1cccc2cccnc12 [Compound 31, 8-Hydroxyquinoline]",VIM-2 percentage inhibition,[5],98%
same,inhibition at 50 µM,"[5]; read-out: VIM-2 percentage inhibition, 50 μM compound, 5 nM MBL, 10 μM nitrocefin, 30 mins",> 96%
same,IC50,[6],3600 nM
same,Ki,[6],670 nM
same,"pKa, hydroxyl group",[7]; hydroxyl group,9.89
same,"pKa, nitrogen atom",[7]; nitrogen atom,5.13
same,metal content of VIM-2 / removal of Zn(II) from the active site,[3],do not inhibit VIM-2 by removal of Zn(II)
O=[N+]([O-])c1ccc(O)c2ncccc12 [Compound 41],CC50,[8],7800 nM
same,VIM-2 percentage inhibition,[5],86%
same,IC50,[6]; [13],670 nM
same,Ki,[6]; [14],250 nM
same,EC50,[9]; 50 uM amoxicillin,70 nM
same,EC50,[9]; [15],70 nM
"Oc1c(I)cc(Cl)c2cccnc12 [Compound 48, Clioquinol, reference compound]",CC50,[8],18300 nM
same,VIM-2 percentage inhibition,[5],93%
same,IC50,[6]; [13],5100 nM
same,Ki,[6]; [14],1100 nM
same,metal content of VIM-2 / removal of Zn(II) from the active site,[3],do not inhibit VIM-2 by removal of Zn(II)
same,synergistic growth inhibition,"[2]; VIM-2 expressing E. coli, compound with amoxicillin",over 96%
same,EC50,[9]; [15],940 nM
"O=C(O)c1cccc(=S)n1O [Compound 51, 1-hydroxypyridine-2 (1H)-thione-6-carboxylic acid, reference compound]",IC50,[6],310 nM
same,Ki,[6],20 nM
same,CC50 at 72 h,[10],92000 nM
O=C(O)CN(CCN(CC(=O)O)CC(=O)O)CC(=O)O [EDTA],Zn(II) removed from VIM-2,[3],1 equivalent of Zn(II)
"O=C(Cc1cccs1)N[C@@H]1C(=O)N2C(C(=O)O)=C(/C=C/c3ccc([N+](=O)[O-])cc3[N+](=O)[O-])CS[C@H]12 [nitrocefin, Nitrocefin]","kcat, hydrolysis of nitrocefin by NDM-1",[11],25 s⁻¹
same,Km,"[11]; read-out: Km, hydrolysis of nitrocefin by NDM-1",2.2 µM
same,"kcat, hydrolysis of nitrocefin by VIM-2",[12],212 s⁻¹
same,Km,"[12]; read-out: Km, hydrolysis of nitrocefin by VIM-2",23 µM

# Source: patent publication US12377086B2, “Therapeutic methods, combinations and kits” (priority 2021, dated 2025)
